Test results reported in US8017585B2, “CXCR4 antagonist and use thereof” (priority 2002, dated 2011).
Numbered stars: 1 amine (or outer) side, 2 acyl side, 3 side chain; on linkers, the order of the positions; unused ones are H or OH. Bridge positions count the residues as written; N and C are the ends. Square brackets hold non-standard residues; d marks the D form. Peptide text beside a SMILES is read from it. * marks the point of attachment. X4 = CN(C)C(=N[C@@H](CCCNC(=N)N)C(=O)*)N(C)C; Pentanoyl(5-guanidino) = NC(N)=NCCCCC(=O)*; 2Nal = N[C@@H](Cc1ccc2ccccc2c1)C(=O)O; X1 = N=C(N)NCCC[C@H](NC(=N)N)C(=O)*; Glutaryl = O=C(CCCC(=O)[*:2])[*:1]; Benzoyl(4-F) = O=C(c1ccc(F)cc1)*; dCit = NC(=O)NCCC[C@@H](N)C(=O)O; Cit = NC(=O)NCCC[C@H](N)C(=O)O; Suc = O=C(CCC(=O)[*:2])[*:1]; X5 = O=C(c1ccccc1F)*; Ava = NCCCCC(=O)O

target: T1, CXCR4 receptor (Homo sapiens, UniProt P61073); assay: Inhibition of 125I-CXCL12 binding to CXCR4 receptor on Jurkat cells; details: Table 1, 125I-CXCL12, 1 hour at room temperature, compounds as acetate salt, read-out: IC50 (nM), inhibitory activity against CXCL12 binding to CXCR4 receptor
T1 construct: 50 μL of Jurkat human T-cell leukemia cells (6×10^6 cells/mL) suspended in buffer; endogenous in cells; host or cells: Jurkat human T-cell leukemia cells
T1 sequence (P61073 whole entry): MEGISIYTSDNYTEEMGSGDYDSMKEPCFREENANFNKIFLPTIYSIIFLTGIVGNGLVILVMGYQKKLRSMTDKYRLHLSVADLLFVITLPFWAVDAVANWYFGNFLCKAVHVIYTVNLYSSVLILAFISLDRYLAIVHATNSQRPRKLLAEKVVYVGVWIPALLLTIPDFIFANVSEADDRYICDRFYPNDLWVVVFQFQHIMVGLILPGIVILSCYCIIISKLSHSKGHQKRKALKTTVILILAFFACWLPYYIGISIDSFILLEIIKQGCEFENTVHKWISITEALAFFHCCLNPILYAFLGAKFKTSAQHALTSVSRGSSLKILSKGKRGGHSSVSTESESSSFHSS
Description: After reaction, suction was made toward the reaction solution by 96 well GF/C filter plate, and each well's radioactivity was measured by top count. As the radioactivity index of 100% when the test compound was not added, and 0% when 100 nM of non-radioisotope-labeled CXCL12 was added, the inhibitory activity of each test compound was measured.

| Structure (SMILES) | IC50 [nM] |
| --- | --- |
| N=C(N)NCCC[C@H](NC(=O)[C@@H]1CSSC[C@H](NC(=O)[C@H](Cc2ccc3ccccc3c2)NC(=O)[C@H](CCC(=O)O)NC(=O)[C@@H](N)CCCNC(=N)N)C(=O)N[C@@H](Cc2ccc(O)cc2)C(=O)N[C@@H](CCCNC(=N)N)C(=O)N[C@@H](CCCCN)C(=O)N[C@H](CCCCN)C(=O)N2CCC[C@H]2C(=O)N[C@@H](Cc2ccc(O)cc2)C(=O)N[C@@H](CCCNC(=N)N)C(=O)N[C@@H](CCCNC(N)=O)C(=O)N1)C(=O)O [TE14002, H-Arg-Glu-Nal-Cys-Tyr-Arg-Lys-DLys-Pro-Tyr-Arg-Cit-Cys-Arg-OH] (H-RE[2Nal]CYRK[dK]PYR[Cit]CR-OH; disulfide 4-13) | 680 |
| N=C(N)NCCC[C@H](NC(=O)[C@@H]1CSSC[C@H](NC(=O)[C@H](Cc2ccc3ccccc3c2)NC(=O)[C@H](CCCNC(=N)N)NC(=O)[C@@H](N)CCCNC(=N)N)C(=O)N[C@@H](Cc2ccc(O)cc2)C(=O)N[C@@H](CCCNC(N)=O)C(=O)N[C@@H](CCCCN)C(=O)N[C@H](CCC(=O)O)C(=O)N2CCC[C@H]2C(=O)N[C@@H](Cc2ccc(O)cc2)C(=O)N[C@@H](CCCNC(=N)N)C(=O)N[C@@H](CCCNC(N)=O)C(=O)N1)C(N)=O [TE14011, H-Arg-Arg-Nal-Cys-Tyr-Cit-Lys-DGlu-Pro-Tyr-Arg-Cit-Cys-Arg-NH2] (H-RR[2Nal]CY[Cit]K[dE]PYR[Cit]CR-NH2; disulfide 4-13) | 2.9 |
| N=C(N)NCCC[C@H](NC(=O)[C@@H]1CSSC[C@H](NC(=O)[C@H](Cc2ccc3ccccc3c2)NC(=O)[C@H](CCCNC(=N)N)NC(=O)[C@@H](N)CCCNC(=N)N)C(=O)N[C@@H](Cc2ccc(O)cc2)C(=O)N[C@H](CCC(=O)O)C(=O)N[C@@H](CCCCN)C(=O)N[C@H](CCCNC(N)=O)C(=O)N2CCC[C@H]2C(=O)N[C@@H](Cc2ccc(O)cc2)C(=O)N[C@@H](CCCNC(=N)N)C(=O)N[C@@H](CCCNC(N)=O)C(=O)N1)C(N)=O [TE14012, H-Arg-Arg-Nal-Cys-Tyr-DGlu-Lys-DCit-Pro-Tyr-Arg-Cit-Cys-Arg-NH2] (H-RR[2Nal]CY[dE]K[dCit]PYR[Cit]CR-NH2; disulfide 4-13) | 5.4 |
| N=C(N)NCCC[C@H](NC(=O)[C@@H]1CSSC[C@H](NC(=O)[C@H](Cc2ccc3ccccc3c2)NC(=O)[C@H](CCCNC(=N)N)NC(=O)[C@@H](N)CCCNC(=N)N)C(=O)N[C@@H](Cc2ccc(O)cc2)C(=O)N[C@H](CCC(=O)O)C(=O)N[C@@H](CCCCN)C(=O)N[C@H](CCC(=O)O)C(=O)N2CCC[C@H]2C(=O)N[C@@H](Cc2ccc(O)cc2)C(=O)N[C@@H](CCCNC(=N)N)C(=O)N[C@@H](CCCNC(N)=O)C(=O)N1)C(N)=O [TE14013, H-Arg-Arg-Nal-Cys-Tyr-DGlu-Lys-DGlu-Pro-Tyr-Arg-Cit-Cys-Arg-NH2] (H-RR[2Nal]CY[dE]K[dE]PYR[Cit]CR-NH2; disulfide 4-13) | 9.3 |
| CC(=O)N[C@@H](CCCNC(=N)N)C(=O)N[C@@H](CCCNC(=N)N)C(=O)N[C@@H](Cc1ccc2ccccc2c1)C(=O)N[C@H]1CSSC[C@@H](C(=O)N[C@@H](CCCNC(=N)N)C(N)=O)NC(=O)[C@H](CCCNC(N)=O)NC(=O)[C@H](CCCNC(=N)N)NC(=O)[C@H](Cc2ccc(O)cc2)NC(=O)[C@@H]2CCCN2C(=O)[C@@H](CCC(=O)O)NC(=O)[C@H](CCCCN)NC(=O)[C@H](CCCNC(N)=O)NC(=O)[C@H](Cc2ccc(O)cc2)NC1=O [TF1, Ac-Arg-Arg-Nal-Cys-Tyr-Cit-Lys-DGlu-Pro-Tyr-Arg-Cit-Cys-Arg-NH2] (Ac-RR[2Nal]CY[Cit]K[dE]PYR[Cit]CR-NH2; disulfide 4-13) | 11 |
| N=C(N)NCCC[C@H](NC(=O)[C@@H]1CSSC[C@H](NC(=O)[C@H](Cc2ccc3ccccc3c2)NC(=O)[C@H](CCCNC(=N)N)NC(=O)[C@H](CCCNC(=N)N)NC(=N)N)C(=O)N[C@@H](Cc2ccc(O)cc2)C(=O)N[C@@H](CCCNC(N)=O)C(=O)N[C@@H](CCCCN)C(=O)N[C@H](CCC(=O)O)C(=O)N2CCC[C@H]2C(=O)N[C@@H](Cc2ccc(O)cc2)C(=O)N[C@@H](CCCNC(=N)N)C(=O)N[C@@H](CCCNC(N)=O)C(=O)N1)C(N)=O [TF2, guanyl-Arg-Arg-Nal-Cys-Tyr-Cit-Lys-DGlu-Pro-Tyr-Arg-Cit-Cys-Arg-NH2] (X1-R[2Nal]CY[Cit]K[dE]PYR[Cit]CR-NH2; disulfide 3-12) | 3.3 |
| CN(C)C(=N[C@@H](CCCNC(=N)N)C(=O)N[C@@H](CCCNC(=N)N)C(=O)N[C@@H](Cc1ccc2ccccc2c1)C(=O)N[C@H]1CSSC[C@@H](C(=O)N[C@@H](CCCNC(=N)N)C(N)=O)NC(=O)[C@H](CCCNC(N)=O)NC(=O)[C@H](CCCNC(=N)N)NC(=O)[C@H](Cc2ccc(O)cc2)NC(=O)[C@@H]2CCCN2C(=O)[C@@H](CCC(=O)O)NC(=O)[C@H](CCCCN)NC(=O)[C@H](CCCNC(N)=O)NC(=O)[C@H](Cc2ccc(O)cc2)NC1=O)N(C)C [TF3, TMguanyl-Arg-Arg-Nal-Cys-Tyr-Cit-Lys-DGlu-Pro-Tyr-Arg-Cit-Cys-Arg-NH2] (X4-R[2Nal]CY[Cit]K[dE]PYR[Cit]CR-NH2; disulfide 3-12) | 9.6 |
| N=C(N)NCCC[C@H](NC(=O)[C@@H]1CSSC[C@H](NC(=O)[C@H](Cc2ccc3ccccc3c2)NC(=O)[C@H](CCCNC(=N)N)NC(=O)[C@H](CCCNC(=N)N)NC(=O)c2ccc(F)cc2)C(=O)N[C@@H](Cc2ccc(O)cc2)C(=O)N[C@@H](CCCNC(N)=O)C(=O)N[C@@H](CCCCN)C(=O)N[C@H](CCC(=O)O)C(=O)N2CCC[C@H]2C(=O)N[C@@H](Cc2ccc(O)cc2)C(=O)N[C@@H](CCCNC(=N)N)C(=O)N[C@@H](CCCNC(N)=O)C(=O)N1)C(N)=O [TF5, 4F-benzoyl-Arg-Arg-Nal-Cys-Tyr-Cit-Lys-DGlu-Pro-Tyr-Arg-Cit-Cys-Arg-NH2] ({Benzoyl(4-F)}-RR[2Nal]CY[Cit]K[dE]PYR[Cit]CR-NH2; disulfide 4-13) | 2.8 |
| N=C(N)NCCC[C@H](NC(=O)[C@@H]1CSSC[C@H](NC(=O)[C@H](Cc2ccc3ccccc3c2)NC(=O)[C@H](CCCNC(=N)N)NC(=O)[C@H](CCCNC(=N)N)NC(=O)c2ccccc2F)C(=O)N[C@@H](Cc2ccc(O)cc2)C(=O)N[C@@H](CCCNC(N)=O)C(=O)N[C@@H](CCCCN)C(=O)N[C@H](CCC(=O)O)C(=O)N2CCC[C@H]2C(=O)N[C@@H](Cc2ccc(O)cc2)C(=O)N[C@@H](CCCNC(=N)N)C(=O)N[C@@H](CCCNC(N)=O)C(=O)N1)C(N)=O [TF6, 2F-benzoyl-Arg-Arg-Nal-Cys-Tyr-Cit-Lys-DGlu-Pro-Tyr-Arg-Cit-Cys-Arg-NH2] (X5-RR[2Nal]CY[Cit]K[dE]PYR[Cit]CR-NH2; disulfide 4-13) | 3.9 |
| N=C(N)NCCC[C@H](NC(=O)[C@@H]1CSSC[C@H](NC(=O)[C@H](Cc2ccc3ccccc3c2)NC(=O)[C@H](CCCNC(=N)N)NC(=O)CCCCN)C(=O)N[C@@H](Cc2ccc(O)cc2)C(=O)N[C@@H](CCCNC(N)=O)C(=O)N[C@@H](CCCCN)C(=O)N[C@H](CCC(=O)O)C(=O)N2CCC[C@H]2C(=O)N[C@@H](Cc2ccc(O)cc2)C(=O)N[C@@H](CCCNC(=N)N)C(=O)N[C@@H](CCCNC(N)=O)C(=O)N1)C(N)=O [TF7, APA-Arg-Nal-Cys-Tyr-Cit-Lys-DGlu-Pro-Tyr-Arg-Cit-Cys-Arg-NH2] (H-[Ava]R[2Nal]CY[Cit]K[dE]PYR[Cit]CR-NH2; disulfide 4-13) | 5.7 |
| N=C(N)NCCCCC(=O)N[C@@H](CCCNC(=N)N)C(=O)N[C@@H](Cc1ccc2ccccc2c1)C(=O)N[C@H]1CSSC[C@@H](C(=O)N[C@@H](CCCNC(=N)N)C(N)=O)NC(=O)[C@H](CCCNC(N)=O)NC(=O)[C@H](CCCNC(=N)N)NC(=O)[C@H](Cc2ccc(O)cc2)NC(=O)[C@@H]2CCCN2C(=O)[C@@H](CCC(=O)O)NC(=O)[C@H](CCCCN)NC(=O)[C@H](CCCNC(N)=O)NC(=O)[C@H](Cc2ccc(O)cc2)NC1=O [TF8, desamino-R-Arg-Nal-Cys-Tyr-Cit-Lys-DGlu-Pro-Tyr-Arg-Cit-Cys-Arg-NH2] ({Pentanoyl(5-guanidino)}-R[2Nal]CY[Cit]K[dE]PYR[Cit]CR-NH2; disulfide 3-12) | 8.2 |
| N=C(N)NCCC[C@H](NC(=O)[C@@H]1CSSC[C@H](NC(=O)[C@H](Cc2ccc3ccccc3c2)NC(=O)[C@H](CCCNC(=N)N)NC(=N)N)C(=O)N[C@@H](Cc2ccc(O)cc2)C(=O)N[C@@H](CCCNC(N)=O)C(=O)N[C@@H](CCCCN)C(=O)N[C@H](CCC(=O)O)C(=O)N2CCC[C@H]2C(=O)N[C@@H](Cc2ccc(O)cc2)C(=O)N[C@@H](CCCNC(=N)N)C(=O)N[C@@H](CCCNC(N)=O)C(=O)N1)C(N)=O [TF9, guanyl-Arg-Nal-Cys-Tyr-Cit-Lys-DGlu-Pro-Tyr-Arg-Cit-Cys-Arg-NH2] (X1-[2Nal]CY[Cit]K[dE]PYR[Cit]CR-NH2; disulfide 2-11) | 250 |
| N=C(N)NCCC[C@H](NC(=O)[C@@H]1CSSC[C@H](NC(=O)[C@H](Cc2ccc3ccccc3c2)NC(=O)[C@H](CCCNC(=N)N)NC(=O)CCC(=O)O)C(=O)N[C@@H](Cc2ccc(O)cc2)C(=O)N[C@@H](CCCNC(N)=O)C(=O)N[C@@H](CCCCN)C(=O)N[C@H](CCC(=O)O)C(=O)N2CCC[C@H]2C(=O)N[C@@H](Cc2ccc(O)cc2)C(=O)N[C@@H](CCCNC(=N)N)C(=O)N[C@@H](CCCNC(N)=O)C(=O)N1)C(N)=O [TF10, succinyl-Arg-Nal-Cys-Tyr-Cit-Lys-DGlu-Pro-Tyr-Arg-Cit-Cys-Arg-NH2] (Suc-R[2Nal]CY[Cit]K[dE]PYR[Cit]CR-NH2; disulfide 3-12) | 48 |
| N=C(N)NCCC[C@H](NC(=O)[C@@H]1CSSC[C@H](NC(=O)[C@H](Cc2ccc3ccccc3c2)NC(=O)[C@H](CCCNC(=N)N)NC(=O)CCCC(=O)O)C(=O)N[C@@H](Cc2ccc(O)cc2)C(=O)N[C@@H](CCCNC(N)=O)C(=O)N[C@@H](CCCCN)C(=O)N[C@H](CCC(=O)O)C(=O)N2CCC[C@H]2C(=O)N[C@@H](Cc2ccc(O)cc2)C(=O)N[C@@H](CCCNC(=N)N)C(=O)N[C@@H](CCCNC(N)=O)C(=O)N1)C(N)=O [TF11, glutaryl-Arg-Nal-Cys-Tyr-Cit-Lys-DGlu-Pro-Tyr-Arg-Cit-Cys-Arg-NH2] (Glutaryl-R[2Nal]CY[Cit]K[dE]PYR[Cit]CR-NH2; disulfide 3-12) | 630 |
